Measured values from ChEMBL document CHEMBL5728432, “Potent and selective mu opioid receptor modulators” (2021).

target: Mu-type opioid receptor (Homo sapiens, UniProt P35372); assay: Competition Binding Assay: The competition binding assay was conducted to determine the affinity and selectivity of the synthesized compounds to MOR over KOR and DOR. The Kd and Bmax values for [3H]NLX at MOR and [3H]DPN at KOR had been determined previously. […] [3H]NLX was used to label MOR whilst [3H]DPN was used to label both DOR and KOR. The potency of the new compounds in displacing the specific binding of the radioligand was determined by linear regression analysis of Hill plots.
Sequence (P35372 whole entry): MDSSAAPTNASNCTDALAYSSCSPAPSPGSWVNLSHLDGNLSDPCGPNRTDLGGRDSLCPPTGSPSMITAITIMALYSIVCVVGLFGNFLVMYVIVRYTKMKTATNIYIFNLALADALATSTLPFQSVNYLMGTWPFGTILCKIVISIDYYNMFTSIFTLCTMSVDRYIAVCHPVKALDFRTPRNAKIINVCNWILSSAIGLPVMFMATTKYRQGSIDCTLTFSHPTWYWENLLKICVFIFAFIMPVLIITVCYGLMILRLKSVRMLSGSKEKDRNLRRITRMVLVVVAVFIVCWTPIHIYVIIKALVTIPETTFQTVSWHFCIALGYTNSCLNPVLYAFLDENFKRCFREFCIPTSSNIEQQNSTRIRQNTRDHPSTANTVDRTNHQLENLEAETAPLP

| Structure (SMILES) | Ki [nM] |
| --- | --- |
| O=C(Cc1c[nH]c2ccccc12)N[C@@H]1CC[C@@]2(O)[C@H]3Cc4ccc(O)c5c4[C@@]2(CCN3CC2CC2)[C@H]1O5 | 0.241 |
| O=C(N[C@H]1CC[C@@]2(O)[C@H]3Cc4ccc(O)c5c4[C@@]2(CCN3CC2CC2)[C@H]1O5)c1ccc2cc[nH]c2c1 | 0.434 |
| O=C(CCCc1c[nH]c2ccccc12)N[C@@H]1CC[C@@]2(O)[C@H]3Cc4ccc(O)c5c4[C@@]2(CCN3CC2CC2)[C@H]1O5 | 0.203 |
| O=C(CCc1c[nH]c2ccccc12)N[C@@H]1CC[C@@]2(O)[C@H]3Cc4ccc(O)c5c4[C@@]2(CCN3CC2CC2)[C@H]1O5 | 0.167 |
| O=C(CCCc1c[nH]c2ccccc12)N[C@H]1CC[C@@]2(O)[C@H]3Cc4ccc(O)c5c4[C@@]2(CCN3CC2CC2)[C@H]1O5 | 0.293 |
| O=C(N[C@H]1CC[C@@]2(O)[C@H]3Cc4ccc(O)c5c4[C@@]2(CCN3CC2CC2)[C@H]1O5)c1cccc2[nH]ccc12 | 0.264 |
| O=C(N[C@H]1CC[C@@]2(O)[C@H]3Cc4ccc(O)c5c4[C@@]2(CCN3CC2CC2)[C@H]1O5)c1c[nH]c2ccccc12 | 0.288 |
| O=C(N[C@H]1CC[C@@]2(O)[C@H]3Cc4ccc(O)c5c4[C@@]2(CCN3CC2CC2)[C@H]1O5)c1cc2ccccc2[nH]1 | 0.363 |
| O=C(N[C@H]1CC[C@@]2(O)[C@H]3Cc4ccc(O)c5c4[C@@]2(CCN3CC2CC2)[C@H]1O5)c1ccc2[nH]ccc2c1 | 0.763 |
| O=C(Cc1c[nH]c2ccccc12)N[C@H]1CC[C@@]2(O)[C@H]3Cc4ccc(O)c5c4[C@@]2(CCN3CC2CC2)[C@H]1O5 | 0.837 |
| O=C(CCc1c[nH]c2ccccc12)N[C@H]1CC[C@@]2(O)[C@H]3Cc4ccc(O)c5c4[C@@]2(CCN3CC2CC2)[C@H]1O5 | 0.437 |
